The supplement of paper PMC10307832

Key:
Assay in all cases: relative viability (nuclei count vs DMSO), 5 days (fraction); higher = more cells survive
[1] = compound: Cn1cncc1[C@@](N)(c1ccc(Cl)cc1)c1ccc2c(c1)c(-c1cccc(Cl)c1)cc(=O)n2C [Tipifarnib] + CCNC(=O)c1noc(-c2cc(C(C)C)c(O)cc2O)c1-c1ccc(CN2CCOCC2)cc1 [Luminespib] (partner 0.01 µM)
In short: (§1)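 After 5 days of treatment, lung cancer cells in 1536-well plates were fixed and stained in a single step (final 0.05% Triton X-100, 1% formaldehyde, 1 ug/ml Hoechst) and their nuclei counted on 4× images. Treatment had been applied by pin tool the day after seeding as one drug alone or as a fixed anchor-drug dose with five library-drug doses (not always all listed) in √10 steps. Relative viability is the nuclei count of treated wells divided by that of vehicle wells, and values are medians of duplicate plates.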

[2] = compound: Cn1cncc1[C@@](N)(c1ccc(Cl)cc1)c1ccc2c(c1)c(-c1cccc(Cl)c1)cc(=O)n2C [Tipifarnib] + CC1(C)CCC(c2ccc(Cl)cc2)=C(CN2CCN(c3ccc(C(=O)NS(=O)(=O)c4ccc(N[C@H](CCN5CCOCC5)CSc5ccccc5)c(S(=O)(=O)C(F)(F)F)c4)cc3)CC2)C1 [Navitoclax] (partner 0.5 µM)
In short: as §1

[3] = compound: Cn1cncc1[C@@](N)(c1ccc(Cl)cc1)c1ccc2c(c1)c(-c1cccc(Cl)c1)cc(=O)n2C [Tipifarnib] + Cc1nc(Nc2ncc(C(=O)Nc3c(C)cccc3Cl)s2)cc(N2CCN(CCO)CC2)n1 [Dasatinib] (partner 0.075 µM)
In short: as §1

[4] = compound: Cn1cncc1[C@@](N)(c1ccc(Cl)cc1)c1ccc2c(c1)c(-c1cccc(Cl)c1)cc(=O)n2C [Tipifarnib] + CC(C)C[C@H](NC(=O)[C@H](Cc1ccccc1)NC(=O)c1cnccn1)B(O)O [Bortezomib] (partner 0.002 µM)
In short: as §1

| Cell Line | relative viability ([1]; first compound 0.01 µM) | relative viability ([1]; first compound 0.03162 µM) | relative viability ([1]; first compound 0.1 µM) | relative viability ([1]; first compound 0.3162 µM) | relative viability ([1]; first compound 1 µM) | relative viability ([2]; first compound 0.01 µM) | relative viability ([2]; first compound 0.03162 µM) | relative viability ([2]; first compound 0.1 µM) | relative viability ([2]; first compound 0.3162 µM) | relative viability ([2]; first compound 1 µM) | relative viability ([3]; first compound 0.01 µM) | relative viability ([3]; first compound 0.03162 µM) | relative viability ([3]; first compound 0.1 µM) | relative viability ([3]; first compound 0.3162 µM) | relative viability ([3]; first compound 1 µM) | relative viability ([4]; first compound 0.01 µM) | relative viability ([4]; first compound 0.03162 µM) | relative viability ([4]; first compound 0.1 µM) | relative viability ([4]; first compound 0.3162 µM) | relative viability ([4]; first compound 1 µM) |
| --- | --- | --- | --- | --- | --- | --- | --- | --- | --- | --- | --- | --- | --- | --- | --- | --- | --- | --- | --- | --- |
| 201T | 1.05 | 1.06 | 0.991 | 0.972 | 0.938 | 1.21 | 1.23 | 1.2 | 1.15 | 1.18 | 0.572 | 0.619 | 0.582 | 0.58 | 0.498 | 1.12 | 1.14 | 1.06 | 1.05 | 0.788 |
| A-427 | 0.828 | 0.877 | 0.849 | 0.691 | 0.548 | 1 | 0.951 | 0.955 | 0.874 | 0.812 | 0.753 | 0.719 | 0.598 | 0.494 | 0.326 | 0.987 | 0.941 | 0.964 | 0.856 | 0.634 |
| ABC-1 | 0.914 |  | 0.321 | 0.347 | 0.278 |  |  |  |  |  | 0.608 |  | 0.567 | 0.483 | 0.473 | 0.31 |  | 0.212 | 0.253 | 0.291 |
| BEN | 0.324 | 0.459 | 0.226 | 0.17 | 0.351 | 0.0636 | 0.0524 | 0.0587 | 0.0688 | 0.0536 | 0.313 | 0.294 | 0.321 | 0.255 | 0.254 | 0.81 | 0.81 | 0.628 | 0.652 | 0.604 |
| CAL-12T | 0.284 | 0.335 | 0.267 | 0.151 | 0.15 | 1.21 | 1.1 | 0.768 | 0.526 | 0.716 | 0.256 | 0.287 | 0.519 | 0.198 | 0.18 | 0.791 | 0.75 | 0.714 | 0.719 | 0.318 |
| COR-L23 | 0.814 | 0.568 | 0.511 | 0.344 | 0.438 | 1.15 | 0.804 | 0.679 | 0.492 | 0.556 | 0.59 | 0.406 | 0.365 | 0.264 | 0.2 | 0.914 | 0.647 | 0.708 | 0.501 | 0.486 |
| COR-L 105 | 0.692 | 0.775 | 0.475 | 0.432 | 0.675 | 0.874 | 0.578 | 0.739 | 0.576 | 0.559 | 0.32 | 0.355 | 0.341 | 0.327 | 0.255 | 0.869 | 0.591 | 0.706 | 0.444 | 0.403 |
| Calu-6 |  |  |  |  |  | 0.538 | 0.35 | 0.196 | 0.194 | 0.2 |  |  |  |  |  | 0.928 | 0.662 | 0.634 | 0.529 | 0.544 |
| ChaGo-K-1 | 0.669 | 0.558 | 0.454 | 0.505 | 0.389 | 1.07 | 1.11 | 1.09 | 0.933 | 0.626 | 0.622 | 0.56 | 0.589 | 0.525 | 0.324 | 0.976 | 1 | 0.954 | 0.978 | 0.53 |
| EBC-1 |  |  |  |  |  | 0.27 | 0.187 | 0.207 | 0.143 | 0.186 |  |  |  |  |  | 0.46 | 0.356 | 0.359 | 0.295 | 0.309 |
| EKVX | 0.95 | 0.856 | 0.41 | 0.776 | 0.496 | 1.01 | 0.861 | 0.841 | 0.744 | 0.49 | 0.543 | 0.613 | 0.512 | 0.508 | 0.641 | 1.13 | 1.01 | 0.903 | 0.699 | 0.607 |
| EMC-BAC-2 | 1.27 | 0.907 | 0.974 | 0.847 | 0.752 | 1.2 | 1.12 | 1.06 | 0.993 | 0.816 | 0.324 | 0.336 | 0.319 | 0.305 | 0.258 | 1.03 | 1 | 0.937 | 0.924 | 0.749 |
| EPLC-272H | 0.196 | 0.267 | 0.233 | 0.378 | 0.173 | 1.34 | 0.908 | 1.07 | 0.837 | 0.741 | 0.417 | 0.285 | 0.296 | 0.304 | 0.158 | 0.987 | 0.195 | 0.634 | 0.577 | 0.311 |
| H3255 | 1.13 | 0.873 | 0.846 | 0.654 | 0.53 | 0.546 | 0.568 | 0.496 | 0.35 | 0.299 | 0.3 | 0.375 | 0.421 | 0.463 | 0.344 | 0.622 | 0.647 | 0.554 | 0.561 | 0.344 |
| HARA | 0.694 | 0.682 | 0.526 | 0.522 | 0.221 | 1.18 | 1.14 | 1.18 | 1.14 | 1.13 | 0.255 | 0.366 | 0.296 | 0.299 | 0.168 | 1.16 | 0.938 | 1.26 | 1.12 | 0.55 |
| HCC-15 | 0.332 | 0.306 | 0.245 | 0.302 | 0.357 | 0.66 | 0.618 | 0.555 | 0.335 | 0.334 | 0.627 | 0.556 | 0.444 | 0.377 | 0.168 | 0.921 | 0.746 | 0.868 | 0.613 | 0.196 |
| HCC-44 | 0.98 | 0.93 | 0.899 | 0.839 | 0.855 | 1.06 | 0.944 | 0.784 | 0.726 | 0.696 |  |  |  |  |  | 0.87 | 0.684 | 0.78 | 0.609 | 0.461 |
| HCC-78 |  |  |  |  |  | 0.752 | 0.896 | 0.743 | 0.59 | 0.302 | 0.327 | 0.428 | 0.273 | 0.371 | 0.266 | 0.606 | 0.45 | 0.46 | 0.469 | 0.462 |
